Consider 14 compounds from patent US20220324868A1, “Pyrazolone-Fused Pyrimidine Compound, and Preparation Method and Use Therefor” (SHANGHAI PHARMACEUTICALS HOLDING CO., LTD., priority 2019, published 2022).

The structures appear in SMILES notation. Like-named read-outs stand apart in the source and are kept apart here.

For one assay, the target named is T1, WEE1 kinase (Homo sapiens, UniProt P30291).
T1 construct: purchased CarnaBiosciences, Inc. 05-177
The assay is described as follows: Inhibitory effect on WEE1 kinase in vitro (ELISA). The assay is classed as biochemical. The conditions noted are these: ATP concentration of Km (12 μM), WEE1 0.15 ng/μL, 60 min. On the procedure:
I. Inhibitory Effect of Compound on WEE1 Kinase In Vitro
The tested compounds were screened on WEE1 kinase with ATP concentration of Km by ELISA. Three compounds were screened on WEE1 kinase to evaluate the kinase inhibitory activity of the tested compounds. In the detection process, the initial concentration of the tested compounds was all selected as 100 nM, and each compound was selected with 6 gradient dilution concentrations, the gradient dilution ratio was 4-fold, and two replicate wells were detected for each concentration, MK1775 was used as the standard control.
1. Coating substrate: 1) An appropriate volume of substrate storage solution protein tyrosinase (PTK) substrate (poly-Glu-Tyr) was taken, diluted 10 times with PBS, and the concentration was diluted from […]. The mixture was added to a high adsorption 96-well plate at 125 μL per well. The plate was placed in an incubator at 37° C. for overnight coating. 2) After 24 hours, the 96-well plate was taken out, the liquid in the 96-well plate was poured out, cleaned with washing buffer for 3 times, and the incubator at 37 was inverted and dried for 2 hours.
3. Enzyme reaction stage: 1) WEE1 kinase and ATP were prepared into 2× enzyme solution and 4× ATP solution respectively with 1× reaction buffer.
4. Reaction termination stage: 1) the reaction mixture in the plate was poured out, 200 μL of washing buffer was added to each well, and washed for 5 times; the primary antibody P-Tyr (PY99) (dilution ratio 1:2000) was added, 100 μL per well, at room temperature for 30 min. 2) The primary antibody in the plate was poured out, 200 μL of washing buffer was added to each well, and washed for 5 times; the second antibody Anti-mouse IgG HRP-linked Antibody (dilution ratio 1:2000) was added, 100 μL per well, at room temperature for 30 min. 3) The secondary antibody in the plate was poured out, washed 5 times with washing buffer, and TMB was added, 100 μL per well, and colored for 10-30 min, depending on the color depth. The reaction was terminated with 1N sulfuric acid before reading.
5. […] 2) Graphpad Prism 5.0 was used to fit Log(inhibitor) vs. response-Variable slope (four parameters) curves to the data, and the corresponding IC50 (half maximal inhibitory concentration) was calculated.
(In general: ELISA stands for enzyme-linked immunosorbent assay.)

A further assay concerns COLO 205 cells. The assay is described as follows: Proliferation inhibition of COLO 205 cells (Luminescence ATP Detection, ATPlite). The assay is classed as cell-based. The following applies: Homo sapiens; p53-deficient cell line COLO 205, 72 hours. The method, then:
(§1) I. Proliferation Inhibitory of the Compound on COLO 205 Cells and Hela Cells.
(§2) COLO205 cells, purchased from SIBS, generation P11; Hela purchased from ATCC, generation P13.
Drug treatment of cells: on the third day of the experiment, microplates were removed from the incubator, 9× compound were added to each well in the microplate, and 5 μL was added to each well, wherein there were 2 replicate wells for each drug concentration and 10 drug concentrations for each compound. According to different cell lines, the initial concentration of each compound was different, after the completion, the microplate was cultured at 37° C. and 5% CO2 for 72 hours.
Data collection: The microplates were removed from the incubator and equilibrated at room temperature for 30 minutes. 100 μL of ATPlite reaction mixture after room temperature equilibrium was added to each well, the solution was shaken at room temperature of 1300 rpm for 2 minutes, and then the microplate was placed in a HERAEUS Multifuge X1R centrifuge at 2000 rpm for 1 minute; after equilibrium at room temperature for 10 minutes, the fluorescence signal value was measured on EnVision™.
(§3) Calculation of cell viability: Cell viability(%)=signal value of administration/signal value of controlx 100%. Graphpad Prism 5.0 was used to fit Log(inhibitor) vs. response-Variable slope (four parameters) curves to the fluorescence signal values at each concentration, and the corresponding IC50 (half maximal inhibitory concentration) was calculated.
Background: In ATP-based viability assays light output follows the ATP content of the culture.

The test system of the next assay is Hela cells. The assay is described as follows: Proliferation inhibition of Hela cells (Luminescence ATP Detection, ATPlite). In kind it is cell-based. The conditions noted are these: Homo sapiens, 72 hours. The method, then:
as §1, §2
Cell culture and inoculation: on the first day of the experiment, cells in normal culture were taken in their exponential growth state, digested and dispersed, the cell density was adjusted to 9×10^3 cells/mL, and 40 μL per well were inoculated into 384-well cell culture plates; after inoculation was completed, the microplates were placed at 37° C. and 5% CO2 for incubation.
Drug treatment of cells: on the second day of the experiment, microplates were removed from the incubator, 9× compound were added to each well in the microplate, and 5 μL was added to each well, wherein there were 2 replicate wells for each drug concentration and 10 drug concentrations for each compound. According to different cell lines, the initial concentration of each compound was different, after the completion, the microplate was cultured at 37° C. and 5% CO2 for 72 hours.
Data collection: the microplates were removed from the incubator and equilibrated at room temperature for 30 minutes. 40 μL of ATPlite reaction mixture after room temperature equilibrium was added to each well, the solution was shaken at room temperature of 1300 rpm for 2 minutes, and then the microplate was placed in a HERAEUS Multifuge X1R centrifuge at 2000 rpm for 1 minute; after equilibrium at room temperature for 10 minutes, the fluorescence signal value was measured on EnVision™.
as §3

T1 sequence (P30291 whole entry): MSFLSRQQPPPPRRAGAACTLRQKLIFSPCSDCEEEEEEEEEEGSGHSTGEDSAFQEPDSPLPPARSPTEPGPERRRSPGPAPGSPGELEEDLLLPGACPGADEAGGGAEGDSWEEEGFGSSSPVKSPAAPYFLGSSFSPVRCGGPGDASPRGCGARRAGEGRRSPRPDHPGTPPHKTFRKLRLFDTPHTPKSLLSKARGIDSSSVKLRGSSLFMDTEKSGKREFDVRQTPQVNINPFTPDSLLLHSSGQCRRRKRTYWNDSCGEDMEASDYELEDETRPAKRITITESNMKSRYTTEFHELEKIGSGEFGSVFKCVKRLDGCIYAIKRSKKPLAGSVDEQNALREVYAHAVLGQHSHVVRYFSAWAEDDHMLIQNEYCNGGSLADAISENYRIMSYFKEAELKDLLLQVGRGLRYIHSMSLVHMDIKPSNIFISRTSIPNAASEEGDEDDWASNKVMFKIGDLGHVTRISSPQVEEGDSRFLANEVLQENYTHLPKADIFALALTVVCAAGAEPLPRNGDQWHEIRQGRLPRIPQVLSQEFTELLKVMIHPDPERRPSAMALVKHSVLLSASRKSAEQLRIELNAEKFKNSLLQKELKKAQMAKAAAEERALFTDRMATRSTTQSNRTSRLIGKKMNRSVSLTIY

Turning to `C=CCn1c(=O)c2cnc(Nc3ccc(N4CCC5(CCN(C)CC5)CC4)cc3)nc2n1-c1ccc2c(n1)C(O)CC2` (stereo not drawn) [Compound I-9, 2-allyl-1-(7-hydroxy-6,7-dihydro-5H-cyclopenta[b]pyridin-2-yl)-6-((4-(9-methyl-3,9-diazaspiro[5.5]undecan-3-yl)phenyl)amino)-1,2-dihydro-3H-pyrazolo[3,4-d]pyrimidin-3-one], the IC50 (as a rule, the midpoint of a concentration-inhibition curve) stood at 2.87 nM on WEE1 kinase (read-out: WEE1 IC50), 614 nM in the assay on COLO 205 cells and 191 nM with Hela cells.

For `C=CCn1c(=O)c2cnc(Nc3ccc(N4CC5(CCN(C)CC5)C4)cc3)nc2n1-c1ccc2c(n1)C(O)CC2` (stereo not drawn) [Compound I-10], the results for the IC50 at WEE1 kinase (read-out: WEE1 IC50), with COLO 205 cells and in the assay with Hela cells were 8.59 nM, 920 nM and 206 nM, respectively.

For `C=CCn1c(=O)c2cnc(Nc3ccc(N4CC5(CCN(CC)CC5)C4)cc3)nc2n1-c1ccc2c(n1)C(O)CC2` (stereo not drawn) [Compound I-11], the IC50 at WEE1 kinase (read-out: WEE1 IC50) was found to be 11.3 nM; in the assay on COLO 205 cells, 1190 nM; in the assay on Hela cells, 317 nM.

`C=CCn1c(=O)c2cnc(Nc3ccc(N4CCC5(CC4)CN(C)C5)cc3)nc2n1-c1ccc2c(n1)C(C)(O)CC2` (stereo not drawn) [Compound I-13, 2-allyl-1-(7-hydroxy-7-methyl-6,7-dihydro-5H-cyclopenta[b]pyridin-2-yl)-6-((4-(2-methyl-2,7-diazaspiro[3.5]nonan-7-yl)phenyl)amino)-1,2-dihydro-3H-pyrazolo[3,4-d]pyrimidin-3-one]: the values for the IC50 at WEE1 kinase (read-out: WEE1 IC50), in the assay with COLO 205 cells and in the assay on Hela cells were 3.41 nM, 886 nM and 190 nM, respectively.

Consider `C=CCn1c(=O)c2cnc(Nc3ccc(N4CC5(CCN(C)CC5)C4)cc3)nc2n1-c1ccc2c(n1)C(C)(O)CC2` (stereo not drawn) [Compound I-14, 2-allyl-1-(7-hydroxy-7-methyl-6,7-dihydro-5H-cyclopenta[b]pyridin-2-yl)-6-((4-(7-methyl-2,7-diazaspiro[3.5]nonan-2-yl)phenyl)amino)-1,2-dihydro-3H-pyrazolo[3,4-d]pyrimidin-3-one], for which the IC50 on WEE1 kinase (read-out: WEE1 IC50) is 2.81 nM; with COLO 205 cells, 363 nM; with Hela cells, 192 nM.

Take `C=CCn1c(=O)c2cnc(Nc3ccc(N4CCN(C)CC4)cc3)nc2n1-c1ccc2c(n1)C(C)(O)CC2` (stereo not drawn) [Compound I-16, 2-allyl-1-(7-hydroxy-7-methyl-6,7-dihydro-5H-cyclopenta[b]pyridin-2-yl)-6-((4-(4-methylpiperazin-1-yl)phenyl)amino)-1,2-dihydro-3H-pyrazolo[3,4-d]pyrimidin-3-one]: the IC50 on WEE1 kinase (WEE1 IC50, nM) came out at 3.99 nM; with COLO 205 cells, 1620 nM; in the assay with Hela cells, 316 nM.

On to `C=CCn1c(=O)c2cnc(Nc3ccc(N4CCN(C)CC4)cc3)nc2n1-c1ccc2c(n1)C(C)(O)CCC2` (stereo not drawn) [Compound I-19, 2-allyl-1-(8-hydroxy-8-methyl-5,6,7,8-tetrahydroquinolin-2-yl)-6-((4-(4-methylpiperazin-1-yl)phenyl)amino)-1,2-dihydro-3H-pyrazolo[3,4-d]pyrimidin-3-one], for which the IC50 against WEE1 kinase (WEE1 IC50, nM) was found to be 1.89 nM; in the assay on COLO 205 cells, 944 nM; in the assay on Hela cells, 170 nM.

Turning to `C=CCn1c(=O)c2cnc(Nc3ccc(N4CCN(C)CC4)cc3)nc2n1-c1ccc2c(n1)C(O)CCC2` (stereo not drawn) [Compound I-23], the values for the concentration for half-maximal inhibition (IC50) at WEE1 kinase (read-out: WEE1 IC50), with COLO 205 cells and in the assay with Hela cells were 2.87 nM, 1670 nM and 534 nM, respectively.

In the case of `C=CCn1c(=O)c2cnc(Nc3ccc(N4C[C@H]5CN(C)C[C@H]5C4)cc3)nc2n1-c1ccc2c(n1)C(C)(O)CCC2` (stereo partly drawn) [Compound I-32, 2-allyl-1-(8-hydroxy-8-methyl-5,6,7,8-tetrahydroquinolin-2-yl)-6-((4-((3aR,6aS)-5-methylhexahydropyrrolo[3,4-c]pyrrole-2(1H)-yl)phenyl)amino)-1,2-dihydro-3H-pyrazolo[3,4-d]pyrimidin-3-one], the IC50 at WEE1 kinase (read-out: WEE1 IC50) turned out to be 4.79 nM; with COLO 205 cells, 541 nM; in the assay with Hela cells, 148 nM.

Take `C=CCn1c(=O)c2cnc(Nc3ccc(N4C[C@H]5CNC[C@H]5C4)cc3)nc2n1-c1ccc2c(n1)C(C)(O)CCC2` (stereo partly drawn) [Compound I-33, 2-allyl-6-((4-((3aR, 6aS)hexahydropyrrolo[3,4-c]pyrrolo-2(1H)-yl)phenyl)amino)-1-(8-hydroxy-8-methyl-5,6,7,8-tetrahydroquinolin-2-yl)-1,2-dihydro-3H-pyrazolo[3,4-d]pyrimidin-3-one]: the figures for the IC50 on WEE1 kinase (read-out: WEE1 IC50), with COLO 205 cells and in the assay with Hela cells were 3.48 nM, 891 nM and 200 nM, respectively.

In the case of `C=CCn1c(=O)c2cnc(Nc3ccc(C4CCC(N(C)C)CC4)cc3)nc2n1-c1ccc2c(n1)C(C)(O)CC2` (stereo not drawn) [Compound I-34], the IC50 on WEE1 kinase (read-out: WEE1 IC50) stood at 4.79 nM; in the assay on COLO 205 cells it was 1580 nM; in the assay with Hela cells it was 214 nM.

In the case of `C=CCn1c(=O)c2cnc(Nc3ccc(N4CC5CN(C)CC5C4)cc3)nc2n1-c1ccc2c(n1)C(C)(O)CC2` (stereo not drawn) [Compound I-35, 2-allyl-1-(7-hydroxy-7-methyl-6,7-dihydro-5H-cyclopenta[b]pyridin-2-yl)-6-((4-(-5-methylhexahydropyrrolo[3,4-c]pyrrol-2(1H)-yl)phenyl)amino)-1,2-dihydro-3H-pyrazolo[3,4-d]pyrimidin-3-one], the figures for the IC50 at WEE1 kinase (read-out: WEE1 IC50), with COLO 205 cells and in the assay on Hela cells were 3.15 nM, 473 nM and 147 nM, respectively.

Regarding `C=CCn1c(=O)c2cnc(Nc3ccc(N4C[C@@H]5CN(C6CCC6)C[C@@H]5C4)cc3)nc2n1-c1ccc2c(n1)C(O)CC2` (stereo partly drawn) [Compound I-38], the figures for the IC50 on WEE1 kinase (read-out: WEE1 IC50), in the assay on COLO 205 cells and in the assay with Hela cells were 2.43 nM, 451 nM and 134 nM, respectively.

Consider `C=CCn1c(=O)c2cnc(Nc3ccc(N4C[C@@H]5CN(C(C)C6CC6)C[C@@H]5C4)cc3)nc2n1-c1ccc2c(n1)C(O)CC2` (stereo partly drawn) [Compound I-41], for which the IC50 on WEE1 kinase (read-out: WEE1 IC50) worked out at 10.6 nM; in the assay on COLO 205 cells it was 786 nM; with Hela cells, 224 nM.
